Reference: the supplement of paper PMC10307832

Experiments:
Experiment in all cases: relative viability (nuclei count vs DMSO), 5 days (fraction); higher = more cells survive
Pemetrexed = compound: Nc1nc2[nH]cc(CCc3ccc(C(=O)N[C@@H](CCC(=O)O)C(=O)O)cc3)c2c(=O)[nH]1 [Pemetrexed]
Summary of the method: (§1)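 Lung cancer cell lines received five library-drug doses (not always all listed) spaced by √10, pinned on vehicle-anchored 1536-well plates after an overnight stay at 37 °C. Five days later, with no medium change, nuclei were Hoechst-stained, imaged at 4× and counted with MetaXpress. Viability is treated-well nuclei relative to vehicle-well nuclei, as a median across plates. Passing plates had control CV below 25% and at least one doubling.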

Idelalisib = compound: CC[C@H](Nc1ncnc2[nH]cnc12)c1nc2cccc(F)c2c(=O)n1-c1ccccc1 [Idelalisib]
Summary of the method: as §1

Idelalisib + OSI-027 = compound: CC[C@H](Nc1ncnc2[nH]cnc12)c1nc2cccc(F)c2c(=O)n1-c1ccccc1 [Idelalisib] + COc1cccc2cc(-c3nc([C@H]4CC[C@H](C(=O)O)CC4)n4ncnc(N)c34)[nH]c12 [OSI-027] (partner 0.5 µM)
Summary of the method: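 Lung cancer cell lines, seeded in 1536-well plates, were treated the following day by pin tool with a single drug or with five library-drug doses (not always all listed) in √10 steps on top of a fixed anchor-drug dose. Cells were fixed and nuclei stained in one step after 5 days, and nuclei were counted. Relative viability is the nuclei count for treated wells divided by that for vehicle wells, reported as medians of duplicate plates.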

Cell Line | relative viability (Pemetrexed; 0.002 µM) | relative viability (Pemetrexed; 0.006325 µM) | relative viability (Pemetrexed; 0.02 µM) | relative viability (Pemetrexed; 0.06325 µM) | relative viability (Idelalisib; 0.04 µM) | relative viability (Idelalisib; 0.1265 µM) | relative viability (Idelalisib; 0.4 µM) | relative viability (Idelalisib; 1.265 µM) | relative viability (Idelalisib; 4 µM) | relative viability (Idelalisib + OSI-027; first compound 0.04 µM) | relative viability (Idelalisib + OSI-027; first compound 0.1265 µM) | relative viability (Idelalisib + OSI-027; first compound 0.4 µM) | relative viability (Idelalisib + OSI-027; first compound 1.265 µM) | relative viability (Idelalisib + OSI-027; first compound 4 µM) | relative viability (Pemetrexed; 0.2 µM) | relative viability (Pemetrexed; 0.2 µM, anchor plate)
HOP-62 | 0.864 | 0.949 | 1.08 | 0.964 | 1.07 | 0.998 | 0.936 | 1.14 | 0.963 | 0.775 | 0.879 | 0.719 | 0.888 | 0.767 | – | –
LC-2-ad | 0.815 | 0.974 | 0.967 | 0.296 | 1.05 | 1 | 0.962 | 1.12 | 0.93 | 0.944 | 0.781 | 0.651 | 0.82 | 0.715 | 0.3 | 0.285
SW 900 | 0.809 | 0.907 | 0.948 | 0.814 | 0.855 | 0.851 | 0.701 | 0.853 | 0.696 | 0.553 | 0.642 | 0.376 | 0.744 | 0.373 | 0.487 | 0.496
NCI-H322M | 1.09 | 0.934 | 0.98 | 0.983 | 1.08 | 1.03 | 0.808 | 0.849 | 0.873 | 0.612 | 0.546 | 0.463 | 0.539 | 0.511 | 0.741 | 0.634
SK-LU-1 | 0.944 | 0.979 | 1.05 | 1.12 | 1.07 | 1.11 | 0.866 | 0.953 | 0.979 | 0.383 | 0.39 | 0.27 | 0.369 | 0.272 | 1 | 0.927
NCI-H1734 | 0.997 | 0.923 | 1.11 | 0.964 | 1.15 | 1.04 | 0.833 | 0.959 | 0.938 | 0.659 | 0.593 | 0.404 | 0.579 | 0.537 | 0.676 | 0.433
HCC-44 | 0.839 | 0.989 | 1.06 | 0.995 | 1.04 | 0.953 | 0.98 | 1.08 | 1.13 | 0.474 | 0.54 | 0.437 | 0.604 | 0.5 | 0.796 | 0.647
NCI-H1703 | 0.917 | 0.871 | 1.39 | 1.06 | 0.916 | 1.07 | 0.809 | 0.832 | 0.509 | – | – | – | – | – | 0.92 | –
NCI-H2170 | 0.952 | 0.928 | 1.04 | 1.01 | 1.01 | 1.02 | 0.88 | 0.885 | 0.807 | 0.722 | 0.793 | 0.637 | 0.609 | 0.649 | – | –
NCI-H1395 | 0.796 | 1.02 | 1.09 | 0.994 | 1.07 | 0.991 | 0.846 | 0.912 | 0.741 | 0.713 | 0.639 | 0.621 | 0.561 | 0.454 | 0.86 | 0.892
NCI-H1355 | 0.787 | 0.962 | 0.999 | 1.05 | 1.03 | 1 | 0.871 | 0.961 | 0.861 | 0.401 | 0.476 | 0.273 | 0.401 | 0.366 | 1 | 1.04
NCI-H1650 | 0.788 | 0.89 | 1.21 | 0.633 | 0.984 | 0.907 | 0.882 | 0.91 | 0.815 | 0.641 | 0.602 | 0.478 | 0.578 | 0.536 | 0.341 | 0.367
IA-LM | 0.838 | 0.937 | 0.959 | 0.988 | 0.975 | 1.05 | 1.02 | 1.23 | 0.955 | – | – | – | – | – | 0.865 | –
NCI-H1666 | 1.05 | 1.02 | 0.999 | 1.02 | 1.03 | 1.04 | 0.911 | 0.981 | 0.902 | 0.889 | 0.895 | 0.782 | 0.83 | 0.759 | 0.796 | 0.834
HCC-78 | 0.674 | 0.98 | 0.877 | 0.43 | 1.05 | 0.923 | 0.811 | 1.01 | 0.729 | 0.413 | 0.364 | 0.324 | 0.36 | 0.293 | – | –
H3255 | 0.819 | 1.03 | 0.986 | 1.07 | 1.06 | 0.946 | 0.925 | 0.959 | 0.879 | 0.721 | 0.566 | 0.558 | 0.517 | 0.534 | 0.827 | 0.587
NCI-H23 | 0.893 | 0.987 | 1.18 | 0.91 | 1.15 | 1.07 | 0.69 | 0.713 | 1 | 0.614 | 0.618 | 0.216 | – | 0.537 | 0.905 | 0.714
NCI-H1944 | 0.716 | 0.99 | 1.04 | 0.956 | 1.21 | 0.943 | 0.785 | 1.01 | 0.803 | 0.473 | 0.411 | 0.271 | 0.396 | 0.365 | 0.969 | 0.619
NCI-H1651 | 0.951 | 0.91 | 1.04 | 0.95 | 1.01 | 1.01 | 0.885 | 0.965 | 0.938 | 0.701 | 0.731 | 0.508 | 0.778 | 0.596 | 0.945 | 0.616
EBC-1 | 0.951 | 0.951 | 1.09 | 1.01 | 1 | 1.1 | 0.986 | 0.965 | 0.88 | – | – | – | – | – | 0.735 | –
COR-L 105 | 0.947 | 0.896 | 1.14 | 0.883 | 1.03 | 0.997 | 0.802 | 0.976 | 0.752 | 0.739 | 0.629 | 0.505 | 0.725 | 0.579 | 0.978 | 1.12
RERF-LC-KJ | 0.958 | 0.969 | 1.03 | 0.995 | 1.11 | 0.99 | 0.955 | 0.959 | 0.817 | 0.632 | 0.563 | 0.436 | 0.502 | 0.516 | 0.746 | 0.486
